For nine molecules, Bliss excess results are on record in the supplement of paper PMC11061612.

What all share (test): Bliss excess, mean over the matrix (fraction); higher = more synergy
In one test the test system is EW-13 (Ewing's Sarcoma). The method, boiled down: (§1)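 After 24 hours at 37°C and 5% CO2 in 1536-well plates, cells in DMEM/F12 or RPMI plus 10% FBS received two-drug dose matrices for 72 hours. Viability came from CellTiter-Glo 2.0 luminescence and was scaled as inhibition, anchored at 0 by vehicle wells and at 1 by blank wells. Combination Emax is taken as the second-highest inhibition in the matrix, and Bliss excess as the observed combination effect less EA + EB − EA·EB, with EA and EB the single-agent effects.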

The test system of test [1] is EMC-BAC-2 (Non-Small Cell Lung Carcinoma). A digest of the protocol: as §1
Test [2] relates to KLE (Endometrial Carcinoma). A digest of the protocol:
as §1

A further test concerns GOTO (Neuroblastoma). The method, boiled down:
as §1

Test [3] deals with KU-19-19 (Bladder Carcinoma). The method, boiled down: as §1
Test [4] deals with KINGS-1 (Low Grade Glioma). A digest of the protocol:
as §1

In test [5] the test system is NCI-H2347 (Lung Adenocarcinoma). The method, boiled down:
as §1

The test system of test [6] is SCC-3 (B-Cell Non-Hodgkin's Lymphoma). A digest of the protocol: as §1
The subject of test [7] is HuP-T3 (Pancreatic Carcinoma). The method, boiled down: as §1
Test [8] deals with KYSE-50 (Esophageal Squamous Cell Carcinoma). A digest of the protocol:
as §1

For test [9], the system named is KYSE-150 (Esophageal Squamous Cell Carcinoma). A digest of the protocol:
as §1

Test [10] deals with OVISE (Ovarian Carcinoma). The method, boiled down:
as §1

The test system of test [11] is EBC-1 (Squamous Cell Lung Carcinoma). The method, boiled down: as §1
For a further test, the system named is NH-12 (Neuroblastoma). A digest of the protocol: as §1

Take `CC(=O)c1c(C)c2cnc(Nc3ccc(N4CCNCC4)cn3)nc2n(C2CCCC2)c1=O` [Palbociclib] + CC1(C)CCC(CN2CCN(c3ccc(C(=O)NS(=O)(=O)c4ccc(NCC5CCOCC5)c([N+](=O)[O-])c4)c(Oc4cnc5[nH]ccc5c4)c3)CC2)=C(c2ccc(Cl)cc2)C1 [Venetoclax] (first compound max 10 µM, 7x7, partner max 1 µM): the Bliss excess is -0.0311 in the test with EW-13 (Ewing's Sarcoma); 0.0004 in [1]; -0.0355 in [2]; -0.0317 with GOTO (Neuroblastoma); -0.0135 in test [3]; 0.0075 in [4]. Also, the Bliss excess in test [5] is -0.0375; in [6], 0.0411; in test [7] it was -0.021; in test [8] it was 0.0238; in test [9], -0.0225; in test [10] it was -0.0422. The Bliss excess in test [11] amounted to 0.0208; in the test on NH-12 (Neuroblastoma), 0.0627.
As for `CC1(C)CCC(CN2CCN(c3ccc(C(=O)NS(=O)(=O)c4ccc(NCC5CCOCC5)c([N+](=O)[O-])c4)c(Oc4cnc5[nH]ccc5c4)c3)CC2)=C(c2ccc(Cl)cc2)C1` [Venetoclax] + CN(C)CCCOc1ccc(-c2ccc3ncc4c(c3c2)n(C2CCOCC2)c(=O)n4C)cn1 [AZD0156] (first compound max 1 µM, 7x7, partner max 1 µM), the Bliss excess in the test with EW-13 (Ewing's Sarcoma) was -0.0351; in [1], -0.0593; in test [2] it was -0.145; with GOTO (Neuroblastoma), -0.0194; in test [3], -0.0167; in test [4] it was -0.0746. Also, the Bliss excess in test [5] is -0.0488; in test [6], 0.0194; in test [7] it was -0.0925; in test [8] it was -0.0399; in [9] it was -0.0356; in test [10], -0.01. The results for the Bliss excess (in test [11]; in the test on NH-12 (Neuroblastoma)) were 0.0095 and -0.0978, respectively.
With `Cc1cc2ncnn2cc1Nc1ncc2c(n1)n(C1CCOCC1)c(=O)n2C` [AZD7648] + CN(C)CCCOc1ccc(-c2ccc3ncc4c(c3c2)n(C2CCOCC2)c(=O)n4C)cn1 [AZD0156] (first compound max 10 µM, 7x7, partner max 1 µM), the Bliss excess in the test on EW-13 (Ewing's Sarcoma) was -0.0385; in [1], 0.0137; in [2] it was 0.0175; with GOTO (Neuroblastoma), -0.0264; in test [3] it was 0.0009; in [4], 0.0089. Also, the Bliss excess in [5] was 0.0159; in [6] it was 0.0458; in [7] it was -0.0065; in [8], 0.0078; in test [9], 0.0054; in test [10], 0.0265. Besides, the Bliss excess was 0.0204 in test [11] and -0.0153 with NH-12 (Neuroblastoma).
On to `CC1(C)CCC(CN2CCN(c3ccc(C(=O)NS(=O)(=O)c4ccc(NCC5CCOCC5)c([N+](=O)[O-])c4)c(Oc4cnc5[nH]ccc5c4)c3)CC2)=C(c2ccc(Cl)cc2)C1` [Venetoclax] + C[C@@H]1COCCN1C2=NC(=NC(=C2)C3(CC3)[S@](=N)(=O)C)C4=C5C=CNC5=NC=C4 [AZD6738] (first compound max 1 µM, 7x7, partner max 10 µM), for which the Bliss excess in the test with EW-13 (Ewing's Sarcoma) was 0.0008; in test [1], -0.0196; in [2] it was -0.0538; in the test with GOTO (Neuroblastoma), -0.039; in [3] it was -0.0844; in [4], -0.0432. Further, the Bliss excess in test [5] is -0.0454; in test [6], 0.013; in test [7], -0.0201; in [8], -0.0492; in test [9] it was -0.0979; in test [10], -0.0658. Moreover, the results for the Bliss excess (in [11]; in the test on NH-12 (Neuroblastoma)) were -0.0731 and -0.0647, respectively.
Regarding `COc1nnc2ccc(N3CCC(c4ccc(OCCN5CCN(C)C(=O)[C@H]5C)cc4)CC3)nn12` [AZD5153] + C=CCn1c(=O)c2cnc(Nc3ccc(N4CCN(C)CC4)cc3)nc2n1-c1cccc(C(C)(C)O)n1 [AZD1775] (first compound max 1 µM, partner max 1 µM), the Bliss excess in the test with EW-13 (Ewing's Sarcoma) was -0.0239; in test [1], -0.0014; in test [2] it was -0.0754; with GOTO (Neuroblastoma) it was -0.0756; in test [3], -0.121; in [4] it was -0.0123. In addition, the Bliss excess in test [5] is 0.0293; in test [6], -0.046; in test [7], -0.0521; in test [8], 0.0211; in [9], -0.049; in [10] it was -0.0081. The values for the Bliss excess (in test [11]; in the test with NH-12 (Neuroblastoma)) were 0.005 and -0.123, respectively.
`COc1cccc(OCCCN)c1-c1cc(Nc2cnc(C#N)cn2)n[nH]1` [Prexasertib] + CN(C)CCCOc1ccc(-c2ccc3ncc4c(c3c2)n(C2CCOCC2)c(=O)n4C)cn1 [AZD0156] (first compound max 1 µM, 7x7, partner max 1 µM): the Bliss excess was 0.0557 in the test with EW-13 (Ewing's Sarcoma); 0.0756 in test [1]; 0.002 in test [2]; -0.0098 with GOTO (Neuroblastoma); -0.0046 in [3]; -0.0927 in test [4]. For the same molecule, the Bliss excess in test [5] was -0.0178; in test [6] it was 0.0103; in [7] it was 0.0713; in test [8], 0.0138; in test [9], -0.0386; in [10] it was 0.0209. The Bliss excess in test [11] is -0.0297; in the test with NH-12 (Neuroblastoma), 0.0111.
On to `Cc1c2c(nn1C)CSCc1cc(n(C)n1)CSc1cc(c3ccccc3c1)OCCCc1c(C(=O)O)n(C)c3c-2c(Cl)ccc13` [AZD5991] + C=CCn1c(=O)c2cnc(Nc3ccc(N4CCN(C)CC4)cc3)nc2n1-c1cccc(C(C)(C)O)n1 [AZD1775] (first compound max 1 µM, partner max 1 µM), for which the Bliss excess in the test on EW-13 (Ewing's Sarcoma) was -0.0441; in test [1] it was -0.0121; in test [2], -0.0616; in the test on GOTO (Neuroblastoma), -0.0513; in [3] it was -0.0518; in test [4], -0.0037. In addition, the Bliss excess was -0.0393 in test [5]; 0.0088 in test [6]; -0.0454 in test [7]; -0.0042 in test [8]; 0.0496 in test [9]; 0.0108 in [10]. For the same molecule, the Bliss excess in test [11] was 0.0007; with NH-12 (Neuroblastoma), -0.0549.
In the case of `CC1(C)CCC(CN2CCN(c3ccc(C(=O)NS(=O)(=O)c4ccc(NCC5CCOCC5)c([N+](=O)[O-])c4)c(Oc4cnc5[nH]ccc5c4)c3)CC2)=C(c2ccc(Cl)cc2)C1` [Venetoclax] + Cn1cnc2c(F)c(Nc3ccc(Br)cc3Cl)c(C(=O)NOCCO)cc21 [Selumetinib] (first compound max 1 µM, 7x7, partner max 3 µM), the Bliss excess in the test on EW-13 (Ewing's Sarcoma) was -0.0378; in [1], -0.0324; in test [2], -0.0704; with GOTO (Neuroblastoma), -0.0679; in test [3], 0.0087; in test [4] it was -0.0469. For the same molecule, the Bliss excess is -0.012 in test [5]; 0.028 in test [6]; -0.0403 in test [7]; -0.0104 in test [8]; -0.0102 in [9]; -0.0678 in test [10]. In addition, the Bliss excess in test [11] was -0.0542; in the test on NH-12 (Neuroblastoma), 0.0918.
For the molecule `Cc1c2c(nn1C)CSCc1cc(n(C)n1)CSc1cc(c3ccccc3c1)OCCCc1c(C(=O)O)n(C)c3c-2c(Cl)ccc13` [AZD5991] + C[C@@H]1COCCN1C2=NC(=NC(=C2)C3(CC3)[S@](=N)(=O)C)C4=C5C=CNC5=NC=C4 [AZD6738] (first compound max 1 µM, 7x7, partner max 10 µM), the Bliss excess with EW-13 (Ewing's Sarcoma) was -0.0056; in test [1] it was 0.066; in [2] it was -0.0021; with GOTO (Neuroblastoma), -0.0213; in test [3], -0.0013; in test [4], 0.0151. Also, the Bliss excess in [5] is -0.0489; in [6], 0.0538; in [7], -0.0053; in test [8], -0.0348; in test [9], 0.0556; in test [10], -0.0118. Also, the figures for the Bliss excess (in [11]; in the test with NH-12 (Neuroblastoma)) were 0.039 and 0.0031, respectively.
